Reference: US20070087021A1, “METHOD OF PROTECTING AGAINST CHRONIC INFECTIONS” (priority 1997, published 2007)

Columns and labels:
[1] = test system: coccidiosis; assay: Paired-barn comparison repeated: vaccine/monensin treatment vs monensin alone; assay type: in vivo, poultry; conditions: cockerels
Experimental: (§1) A gel form vaccine was prepared by first adding 200 ml of hot tap water to 5 gm of kappa carrageenan Bengel MB 910 in a container and mixing until the MB 910 had dissolved. To this solution was added 200 ml of a solution containing 500 oocysts per ml of a mixture of Eimeria acervulina, E. maxima and E. tenella and the combined solution was mixed. The solution was then poured into a plastic watering dish and allowed to cool and get at 4° C.
(§2) A paired-barn comparison was conducted between use of a anticoccidial ionophore and the method of the present invention for protecting poultry against coccidiosis. 51,000 birds were divided into two groups. One group was maintained on feed containing 60 mg per kilogram of feed of salinomycin sodium COXISTAC (Pfizer). The second group was administered the vaccine prepared in accordance with Example 1 on Day 1. These birds were maintained on feed with no medication for 10 days. Thereafter, 60 mg per kilogram of salinomycin sodium was utilized in the feed for a further 10 days after which the animals were maintained on non-medicated feed until shipping. A virginiamysin based growth promotant STAFAC (SmithKline Beecham) at a level of 11 mg per kilogram of feed was used as a growth promotant in both groups.
The above example was repeated comparing vaccine/monensin treatment with monensin alone and the results from this are shown in Table 2.

[2] = test system: coccidiosis; assay: Paired-barn comparison of anticoccidial ionophore (salinomycin) vs vaccine plus salinomycin for protecting poultry against coccidiosis; assay type: in vivo
Experimental: as §1, §2

[3] = birds, market age 42 days / 52 days

Row | Structure (SMILES) | EEF (European Efficiency Factor) [1] | Feed Conversion Ratio [1] | Avg. Weight ([1]; average at market (Monesin group: market age 47 days)) [kg] | Livability (%) ([1]; vaccine group: 2 weeks no medication, then 2 weeks monensin in feed) | Avg. Weight [2, 3] [kg] | Feed Conversion Ratio [2, 3] | Livability (%) ([2]; birds, market age 42 days / 52 days, salinomycin sodium 60 mg per kg feed (vaccine group: 10 days no medication, then 10 days salinomycin)) | EEF (European Efficiency Factor) ([2]; related to percent livability, average market weight, feed conversion rate and market age)
1 | CC[C@@]1([C@@H]2O[C@@H]([C@H]3O[C@@](O)(CO)[C@H](C)C[C@@H]3C)C[C@@H]2C)CC[C@H]([C@]2(C)CC[C@]3(C[C@H](O)[C@@H](C)[C@@H]([C@@H](C)[C@@H](OC)[C@H](C)C(=O)O)O3)O2)O1 [Monesin, monensin] | 2.23 | 2.19 | 2.44 | 94.1 | – | – | – | –
2 | CC[C@@H](C(=O)[C@@H](C)[C@@H](O)[C@H](C)[C@@H]1O[C@@H]([C@@H](CC)C(=O)O)CC[C@@H]1C)[C@H]1O[C@]2(C=C[C@@H](O)[C@]3(CC[C@@](C)([C@H]4CC[C@](O)(CC)[C@H](C)O4)O3)O2)[C@H](C)C[C@@H]1C [Salinomycin, salinomycin sodium] | – | – | – | – | 2.72 | 2.16 | 91.8 | 2.23
